This is an account of results in patent US11040019B2, “Selective estrogen-receptor modulators (SERMs) confer protection against photoreceptor degeneration” (THE UNITED STATES OF AMERICA, as represented by the …, priority 2016, dated 2021).

For the experiment, the system named is 661W photoreceptors. Briefly: Microglia-photoreceptor interaction assay: 661W viability (MTT) in conditioned media of LPS-stimulated BV2 microglia. To be noted: BV2 pre-treated before LPS 50 ng/ml; 661W exposed 24 h; TMX 3 and 5 μg/ml, raloxifene 0.3-3 μM, G-1 1 μM, GPR30 antagonist 100 nM.

The structures appear in SMILES notation.

Protocol: 661W photoreceptors cultured in 96-well plate (4×10^4 cells/well) were exposed to conditioned media from LPS-stimulated (50 ng/ml) BV2 microglia (cultured in 6-well plate with a cell density of 4×10^5 cells/well) for 48 h. […] Cell viability of 661W photoreceptors were assessed using a MTT assay.
Murine microglial cell line (BV-2) cells and photoreceptor-like cell line (661W) were used in this study. BV-2 cells were plated in 6-well plates at the density of 4×10^5/well and cultured for 24 h in DMEM medium (Life Technologies Corporation, Grand Island, N.Y.) containing 5% heat inactivated FBS (Life Technologies Corporation, Grand Island, N.Y.) at 37° C. in a humidified atmosphere of 5% CO2. […] Cell viability of 661W photoreceptors were assessed using a MTT cell proliferation assay kits (ATCC, Manassas, Va.) following the manufacturer's specifications. […]
661W photoreceptors cultured in 96-well plate (4×10^4 cells/well) were exposed to conditioned media from LPS-stimulated (50 ng/ml) BV2 microglia (cultured in 6-well plate with a cell density of 4×10^5 cells/well) for 24 h. […] Cell viability of 661W photoreceptors were assessed using a MTT assay.

Consider `CC(=O)c1ccc2c(c1)C1C=CCC1C(c1cc3c(cc1Br)OCO3)N2` (centres unmarked) [G-1], for which the “neurotoxicity of microglia-conditioned media to 661W photoreceptors (viability, MTT)” value is reported as “significantly reduced neurotoxicity”. As to `O=C(c1ccc(OCCN2CCCCC2)cc1)c1c(-c2ccc(O)cc2)sc2cc(O)ccc12` [raloxifene, [6-hydroxy-2-(4-hydroxyphenyl)-benzothiophen-3-yl]-[4-[2-(1-piperidyl)ethoxy]phenyl]-methanone], the “neurotoxicity of microglia-conditioned media to 661W photoreceptors (viability, MTT)” value is listed as “significantly reduced neurotoxicity”.
